Where two headings read alike, the source gives them in different places.
Legend:
LSD1 = LSD1 (Homo sapiens, UniProt O60341); experiment: LSD1 fluorescence coupling enzyme assay (HRP/Amplex Red, H3(1-21)K4me2 peptide), 10-dose IC50; format: biochemical; conditions: 10 μM histone H3(1-21)K4me2 peptide substrate, 3-fold serial dilution from 100 μM
From the text: Assaying the inhibition of KDM1A can be determined in vitro, in cultured cells, and in animals. There are a variety of spectrophotometric methods to detect the results of demethylation of methylated lysines, viz., detecting the products of KDM1A demethylase oxidative activity on a peptide fragment of at least 18 amino acids representing the N-terminus of the histone H3 substrate that contains a monomethyl at the fourth lysine residue. Hydrogen peroxide, one product of the KDM1A demethylase reaction, reacts with horseradish peroxidase and dihydroxyphenoxazine (ADHP) to produce the fluorescent compound resorufin (excitation=530-560 nm: emission=590 nm). The KDM1A demethylase enzyme activity can be obtained from mammalian cells or tissues expressing KDM1A from an endogenous or recombinant gene and purified or assayed from a whole cell extract. These methods can be used to determine the concentration of the disclosed compounds can inhibit fifty percent of the enzyme activity (IC50).
Alternatively, the production of H2O2 during the KDM1A reaction can be detected fluometrically. In this system, the production of H2O2 is detected in the HDM assay buffer after exposure to substrate, co-factor and enzyme using ADHP (10-Acetyl-3, 7-dihydroxyphenoxazine) as a fluorogenic substrate for horse radish peroxidase (HRP). […] The florescent product is resorufin. Sensitivity can be as low as 10-15 M of target protein. The signal is read using a fluorescence microplate reader at excitation and emission wavelengths of 530-560 nm and 590 nm, respectively.
Compounds were tested in a 10-dose IC50 mode fluorescence coupling enzyme assay with 3-fold serial dilution in duplicate starting at 100 μM. The production of FAD-dependent H2O2 as a result of demethylase activity of LSD1 on 10 μM histone H3(1-21)K4me2 peptide substrate was measured by coupling with HRP and Amplex Red to yield resorufin (fluorescence measured at Ex/Em=535/590 nm on EnVision, Perkin Elmer).

MV4;11 cells = experiment: Cell Titer-Glo cell growth inhibition in MV4;11 cell line (Day 5 / Day 10); format: cell-based
Experimental: Cell growth inhibition against MV4;11 cells was confirmed for the synthetic compounds. The Cell Titer-Glo Luminescent Cell Viability Assay (Promega, USA) was used to determine the number of viable cells in culture based on quantitation of the ATP present, which signals the presence of metabolically active cells. This assay was run in a 96-well plate format arrayed in a 10-point dose curve, ranging from 0 to 50 µM with 4-fold dilutions for each compound. Cells are seeded on Day 0 at 3750 cells per well. At Day 5, a portion of each well is assayed for viability according to the Cell Titer-Glo protocol. Briefly, cells/plates were centrifuged at 1100×g for 5 minutes. 100 μL of media was removed from each well and replaced with 100 μL of CellTiter-Glo. The plates were shaken at room temperature for 10 minutes and measured on a luminescence plate reader. Another portion of each well from the Day 5 plate is used to seed a new 96 plate containing fresh compound and media set up in the equivalent 10-point dose curve array in order to continue the cell growth inhibition assay for another 5 days. A final timepoint is collected at Day 10 using the Cell Titer-Glo protocol. Luminescence was detected on an En Vision® Multilabel Plate Reader (Perkin Elmer, Waltham, Mass.) and IC50 determination was made using Graph Pad Prism software.

[1] = Day 5, read-out: Cell Titer-Glo IC50 (5 d)
[2] = Homo sapiens, MV4-11, 120 h, Day 5, read-out: Cell Titer-Glo IC50 (5 d)
[3] = Homo sapiens, MV4-11, 240 h, Day 10, read-out: Cell Titer-Glo IC50 (10 d)
[4] = Day 10, read-out: Cell Titer-Glo IC50 (10 d)
[5] = Homo sapiens, 120 h, Day 5, read-out: Cell Titer-Glo IC50 (5 d)
[6] = Homo sapiens, 240 h, Day 10, read-out: Cell Titer-Glo IC50 (10 d)

Molecule | IC50 (LSD1) | IC50 (MV4;11 cells; [1]) | IC50 (MV4;11 cells; [2]) | IC50 (MV4;11 cells; [3]) | IC50 (MV4;11 cells; [4]) | IC50 (MV4;11 cells; [5]) | IC50 (MV4;11 cells; [6])
4-(3-(4-aminopiperidin-1-yl)-1-(p-tolyl)-1H-pyrazol-5-yl)-2-fluorobenzonitrile/4-(5-(4-aminopiperidin-1-yl)-1-(p-tolyl)-1H-pyrazol-3-yl)-2-fluorobenzonitrile [Example 34] | < 500 nM | 1000 to 10000 nM |  |  |  |  | 
COc1ccc(-n2nc(NCC3CC[C@@H](N)C3)cc2-c2ccc(C#N)c(F)c2)cc1 (mixture of isomers) [Example 4, rac-4-(3-((((1S,3R)-3-aminocyclopentyl)methyl)amino)-1-(4-methoxyphenyl)-1H-pyrazol-5-yl)-2-fluorobenzonitrile] | < 500 nM |  | 1000 to 10000 nM |  |  |  | 
COc1ccc(-n2nc(NC[C@H]3CCC[C@@H](N)C3)cc2-c2ccc(C#N)c(F)c2)cc1 (racemic) [Example 5, rac-4-(3-((((15,3R)-3-aminocyclohexyl)methyl)amino)-1-(4-methoxyphenyl)-1H-pyrazol-5-yl)-2-fluorobenzonitrile] | < 500 nM |  | < 500 nM |  |  |  | 
Cn1ncc2cc(-n3nc(NCC4CCCC(N)C4)cc3-c3ccc(C#N)c(F)c3)ccc21 (racemic) [Example 7, rac-4-(3-(((3-aminocyclohexyl)methyl)amino)-1-(1-methyl-1H-indazol-5-yl)-1H-pyrazol-5-yl)-2-fluorobenzonitrile] | < 500 nM |  | < 500 nM |  |  |  | 
COc1ccc(-n2nc(NCC3CC3N)cc2-c2ccc(C#N)c(F)c2)cc1 (racemic) [Example 29, (±)-trans-4-(3-(((2-aminocyclopropyl)methyl)amino)-1-(4-methoxyphenyl)-1H-pyrazol-5-yl)-2-fluorobenzonitrile] | 1000 to 10000 nM |  | 1000 to 10000 nM | 1000 to 10000 nM |  |  | 
COc1ccc(-n2nc(NC[C@H]3CC[C@@H](N)C3)cc2-c2ccc(C#N)c(F)c2)cc1 (single isomer, unassigned) [Example 4a] | < 500 nM |  | < 500 nM |  |  |  | 
COc1ccc(-n2nc(NC[C@@H]3CC[C@H](N)C3)cc2-c2ccc(C#N)c(F)c2)cc1 (single isomer, unassigned) [Example 4b] | < 500 nM |  | 500 to 1000 nM |  |  |  | 
COc1ccc(-n2nc(NC[C@H]3CCC[C@@H](N)C3)cc2-c2ccc(C#N)c(F)c2)cc1 (single isomer, unassigned) [Example 5a] | < 500 nM |  | 500 to 1000 nM |  |  |  | 
COc1ccc(-n2nc(NC[C@@H]3CCC[C@H](N)C3)cc2-c2ccc(C#N)c(F)c2)cc1 (single isomer, unassigned) [Example 5b] | < 500 nM |  | < 500 nM |  |  |  | 
Cn1ncc2cc(-n3nc(NC[C@H]4CCC[C@@H](N)C4)cc3-c3ccc(C#N)c(F)c3)ccc21 (single isomer, unassigned) [Example 7a] | 500 to 1000 nM |  | 1000 to 10000 nM |  |  |  | 
Cn1ncc2cc(-n3nc(NC[C@@H]4CCC[C@H](N)C4)cc3-c3ccc(C#N)c(F)c3)ccc21 (single isomer, unassigned) [Example 7b] | < 500 nM |  | 500 to 1000 nM |  |  |  | 
Cn1ncc2cc(-n3nc(NC[C@H]4CCC[C@H](N)C4)cc3-c3ccc(C#N)c(F)c3)ccc21 (single isomer, unassigned) [Example 7c] | < 500 nM |  | < 500 nM | < 500 nM |  |  | 
Cn1ncc2cc(-n3nc(NC[C@@H]4CCC[C@@H](N)C4)cc3-c3ccc(C#N)c(F)c3)ccc21 (single isomer, unassigned) [Example 7d] | < 500 nM |  | < 500 nM | < 500 nM |  |  | 
Cn1cc2cc(-n3nc(NC[C@@H]4CCCNC4)cc3-c3ccc(C#N)c(F)c3)ccc2n1 (single isomer, unassigned) [Example 9a] | 1000 to 10000 nM |  | < 500 nM |  |  |  | 
Cn1cc2cc(-n3nc(NC[C@H]4CCCNC4)cc3-c3ccc(C#N)c(F)c3)ccc2n1 (single isomer, unassigned) [Example 9b] | < 500 nM |  | < 500 nM |  |  |  | 
COc1ccc(-n2nc(NCC3CCCNCC3)cc2-c2ccc(C#N)c(F)c2)cc1 (single isomer, unassigned) [Example 22a, 4-(3-((azepan-4-ylmethyl)amino)-1-(4-methoxyphenyl)-1H-pyrazol-5-yl)-2-fluorobenzonitrile] | < 500 nM |  | < 500 nM | < 500 nM |  |  | 
COc1ccc(-n2nc(NCC3CCCNCC3)cc2-c2ccc(C#N)c(F)c2)cc1 (single isomer, unassigned) [Example 22b, 4-(3-((azepan-4-ylmethyl)amino)-1-(4-methoxyphenyl)-1H-pyrazol-5-yl)-2-fluorobenzonitrile] | < 500 nM | 500 to 1000 nM |  |  | < 500 nM |  | 
N#Cc1ccc(-c2cc(NC[C@@H]3CCCNCC3)nn2-c2ccc(N3CCCC3)cc2)cc1F (single isomer, unassigned) [Example 24a] | < 500 nM |  | < 500 nM | < 500 nM |  |  | 
N#Cc1ccc(-c2cc(NC[C@H]3CCCNCC3)nn2-c2ccc(N3CCCC3)cc2)cc1F (single isomer, unassigned) [Example 24b] | < 500 nM |  | < 500 nM | < 500 nM |  |  | 
N#Cc1ccc(-c2cc(NC[C@@H]3CCCNCC3)nn2-c2ccc(C(=O)N3CCCC3)cc2)cc1F (single isomer, unassigned) [Example 25a] | < 500 nM |  | < 500 nM | < 500 nM |  |  | 
N#Cc1ccc(-c2cc(NC[C@H]3CCCNCC3)nn2-c2ccc(C(=O)N3CCCC3)cc2)cc1F (single isomer, unassigned) [Example 25b] | < 500 nM |  | 1000 to 10000 nM | < 500 nM |  |  | 
N#Cc1ccc(-c2cc(NC[C@@H]3CCCNCC3)nn2-c2ccc(N3CCS(=O)(=O)CC3)cc2)cc1F (single isomer, unassigned) [Example 26a] | < 500 nM |  | < 500 nM | < 500 nM |  |  | 
N#Cc1ccc(-c2cc(NC[C@H]3CCCNCC3)nn2-c2ccc(N3CCS(=O)(=O)CC3)cc2)cc1F (single isomer, unassigned) [Example 26b] | < 500 nM |  | < 500 nM | < 500 nM |  |  | 
N#Cc1ccc(-c2cc(NC[C@@H]3CCCNCC3)nn2-c2ccc(N3CCN(CCO)CC3)cc2)cc1F (single isomer, unassigned) [Example 27a] | < 500 nM |  | 500 to 1000 nM | < 500 nM |  |  | 
N#Cc1ccc(-c2cc(NC[C@H]3CCCNCC3)nn2-c2ccc(N3CCN(CCO)CC3)cc2)cc1F (single isomer, unassigned) [Example 27b] | < 500 nM |  | < 500 nM | < 500 nM |  |  | 
COc1ccc(-n2nc(NCC3CC3N)cc2-c2ccc(C#N)c(F)c2)cc1 (single isomer, unassigned) [Example 29a, 4-(3-(((2-aminocyclopropyl)methyl)amino)-1-(4-methoxyphenyl)-1H-pyrazol-5-yl)-2-fluorobenzonitrile] | 500 to 1000 nM |  | 1000 to 10000 nM | < 500 nM |  |  | 
COc1ccc(-n2nc(NCC3CC3N)cc2-c2ccc(C#N)c(F)c2)cc1 (single isomer, unassigned) [Example 29b, 4-(3-(((2-aminocyclopropyl)methyl)amino)-1-(4-methoxyphenyl)-1H-pyrazol-5-yl)-2-fluorobenzonitrile] | < 500 nM | 1000 to 10000 nM |  |  | < 500 nM |  | 
Cn1ncc2cc(-n3nc(NC[C@@H]4CN5CCC4CC5)cc3-c3ccc(C#N)c(F)c3)ccc21 (single isomer, unassigned) [Example 31a] | < 500 nM |  |  |  |  | 1000 to 10000 nM | < 500 nM
Cn1ncc2cc(-n3nc(NC[C@H]4CN5CCC4CC5)cc3-c3ccc(C#N)c(F)c3)ccc21 (single isomer, unassigned) [Example 31b] | < 500 nM |  |  |  |  | 500 to 1000 nM | < 500 nM
CN[C@H]1CCCC(CNc2cc(-c3ccc(C#N)c(F)c3)n(-c3ccc(OC)cc3)n2)C1 (single isomer, unassigned) [Example 32a] | < 500 nM |  | 1000 to 10000 nM |  |  |  | 

Reference: patent US20250032454A1, “KDM1A INHIBITORS FOR THE TREATMENT OF DISEASE” (Imago Biosciences, Inc., priority 2021, published 2025)
